# Measurements published in article PMC6151961 (Journal of Enzyme Inhibition and Medicinal Chemistry, 2018).
# Where two headings read alike, the source gives them in different places.
# Columns and labels:
# [1] = biological target: T1, CA IX (Homo sapiens, UniProt Q16790); assay: biochemical
# [2] = biological target: T1, CA IX; conditions: cited from earlier work
# [3] = experimental value from the library Ki (IDs A…, B…), values equal log10 of Ki in nM, read-out: pKi (exp.) (converted)
# [4] = observed Ki of library compounds (IDs A…, B…), ref ChEMBL and BindingDB, read-out: Ki
# [5] = read-out: pKi (exp.) (converted)
# [6] = library compounds with IDs A… and B…, from observed Ki (nM), read-out: pKi (exp.) (converted)
# [7] = library compounds with IDs A… and B…, observed Ki, ref ChEMBL, BindingDB, read-out: Ki
# [8] = experimental value used for the QSPR model, library compounds (IDs A…, B…), equals log10 of Ki in nM, read-out: pKi (exp.) (converted)
compound,measurement,setting,value
NS(=O)(=O)OC[C@H]1O[C@H](O)[C@H](O)[C@@H](O)[C@H]1O [A1346],Ki,[1]; [3],61.9 nM
same,Ki,[2]; [4],62 nM
C[C@]12CC[C@@H](OS(N)(=O)=O)CC1=C[C@@H](O)[C@@H]1[C@@H]2CC[C@]2(C)C(=O)CC[C@@H]12 [A1368],Ki,[1],65 nM
same,Ki,[2],65 nM
NOS(=O)(=O)N[C@H]1C=C[C@H](O)[C@@H](CO)O1 [A1502],Ki,[1]; [3],84.9 nM
same,Ki,[2]; [4],85 nM
NOS(=O)(=O)N[C@H]1C=C[C@H](O)CO1 [A1544],Ki,[1]; [5],91 nM
same,Ki,[2]; read-out: Ki,91 nM
COC(=O)[C@H]1C[C@H](OS(N)(=O)=O)CN1S(=O)(=O)[C@H]1O[C@H](COC(C)=O)[C@@H](OC(C)=O)[C@H](OC(C)=O)[C@H]1OC(C)=O [B0015],Ki,[1]; [6],2 nM
same,Ki,[2]; [7],2 nM
NS(=O)(=O)c1ccc(-n2cc(/C=N/Nc3nc(-c4cc5cc(Cl)ccc5oc4=O)cs3)c(-c3ccc(F)cc3)n2)cc1 [B0019],Ki,[1]; [3],2.5 nM
same,Ki,[2]; [4],2.5 nM
C[C@H](NC(=O)Nc1ccc(NS(N)(=O)=O)cc1)c1cccc2ccccc12 [B0045],Ki,[1]; [6],3.4 nM
same,Ki,[2]; [7],3.4 nM
NS(=O)(=O)c1ccc(-n2nnc(CS[C@H]3O[C@H](CO)[C@@H](O)[C@@H](O)[C@H]3O)c2I)cc1 [B0123],Ki,[1]; [8],6.5 nM
same,Ki,[2]; [4],6.5 nM
CC(=O)/N=C1\SC(S(N)(=O)=O)=N[C@@H]1C [B0187],Ki,[1]; [5],8.99 nM
same,Ki,[2]; read-out: Ki,9 nM
CN(C)C1=CCN(c2ccncc2S(N)(=O)=O)C=C1 [B0189],Ki,[1]; [8],8.99 nM
same,Ki,[2]; [4],9 nM
Cc1ncc(-c2ccc(S(N)(=O)=O)s2)o1 [B0222],Ki,[1]; [3],11 nM
same,Ki,[2]; [4],11 nM
COc1ccc2c(c1)CCN(S(N)(=O)=O)[C@@H]2c1ccc(N)cc1 [B0230],Ki,[1]; [6],12 nM
same,Ki,[2]; [7],12 nM
CC(=O)OC[C@@H]1O[C@@H](NS(N)(=O)=O)C[C@@H](OC(C)=O)[C@@H]1OC(C)=O [B0263],Ki,[1]; [5],16 nM
same,Ki,[2]; read-out: Ki,16 nM
Cc1ccc2c(c1)/C(=N/c1ccc(NC(=O)Nc3ccc(S(N)(=O)=O)cc3)cc1)C(=O)N2 [B0270],Ki,[1]; [8],17 nM
same,Ki,[2]; [4],17 nM
NS(=O)(=O)c1ccc(-n2cc(/C=N/Nc3nc(-c4cc5ccccc5oc4=O)cs3)c(-c3ccccc3)n2)cc1 [B0285],Ki,[1]; [8],20 nM
same,Ki,[2]; [4],20 nM
NS(=O)(=O)c1ccc(-n2cc(/C=N/Nc3nc(-c4cc5cc(Br)ccc5oc4=O)cs3)c(-c3ccccc3)n2)cc1 [B0298],Ki,[1]; [5],22 nM
same,Ki,[2]; read-out: Ki,22 nM
NS(=O)(=O)c1ccc(N2C(=O)/C(=C\c3coc4ccccc4c3=O)N=C2c2ccccc2)cc1 [B0301],Ki,[1]; [6],23 nM
same,Ki,[2]; [7],23 nM
C/C(=N/Nc1ccc(S(N)(=O)=O)cc1)c1cc2cc(Br)ccc2oc1=O [B0309],Ki,[1]; [5],24 nM
same,Ki,[2]; read-out: Ki,24 nM
CCOc1ccc(S(=O)(=O)N2CCOCC2)cc1-c1nnc2c(n1)c(C)nn2C [B0310],Ki,[1]; [3],24 nM
same,Ki,[2]; [4],24 nM
CCO[C@H]1Oc2ccccc2C(=O)[C@H]1/C=N\c1ccc(S(=O)(=O)Nc2cc(C)on2)cc1 [B0311],Ki,[1]; [3],24 nM
same,Ki,[2]; [4],24 nM
Nc1nc(=O)[nH]c2c1c(-c1ccc(Br)cc1)cn2-c1ccc(S(N)(=O)=O)cc1 [B0312],Ki,[1]; [5],24 nM
same,Ki,[2]; read-out: Ki,24 nM
CCCN(CCC)S(=O)(=O)c1ccc(C(=O)N[C@H](Cc2ccccc2)C(N)=O)cc1 [B0320],Ki,[1]; [5],25 nM
same,Ki,[2]; read-out: Ki,25 nM
NS(=O)(=O)c1ccc(NC(=S)Nc2ccc(C3c4ccc(O)cc4Oc4cc(O)ccc43)c(C(=O)O)c2)c(F)c1 [B0365],Ki,[1]; [8],30 nM
same,Ki,[2]; [4],30 nM
NS(=O)(=O)c1ccc(NC(=S)Nc2ccc(C3c4ccc(O)cc4Oc4cc(O)ccc43)c(C(=O)O)c2)c(Cl)c1 [B0381],Ki,[1]; [6],32 nM
same,Ki,[2]; [7],32 nM
CC1=CC(C)C=C(C)N1Cc1ccc(S(N)(=O)=O)cc1 [B0412],Ki,[1]; [3],38 nM
same,Ki,[2]; [4],38 nM
NS(=O)(=O)c1ccc(C(=O)OCc2cn([C@@H]3O[C@H](CO)[C@@H](O)[C@@H](O)[C@@H]3O)nn2)cc1 [B0491],Ki,[1]; [5],65 nM
same,Ki,[2]; read-out: Ki,65 nM
CC(=O)O[C@@H]1O[C@@H](COS(N)(=O)=O)[C@H](OC(C)=O)[C@@H](OC(C)=O)[C@H]1OC(C)=O [B0512],Ki,[1]; [8],72.9 nM
same,Ki,[2]; [4],73 nM
CC(=O)OC[C@H]1O[C@H](SCc2nnn(-c3ccc(S(N)(=O)=O)cc3)c2C#CCO)[C@@H](OC(C)=O)[C@H](OC(C)=O)[C@@H]1OC(C)=O [B0570],Ki,[1]; [3],91 nM
same,Ki,[2]; [4],91 nM
COc1cccc(/C=C\C(=O)C[C@@H]2O[C@@H](COC(C)=O)[C@@H](OC(C)=O)[C@@H](OC(C)=O)[C@H]2OC(C)=O)c1 [B0574],Ki,[1]; [6],92.9 nM
same,Ki,[2]; [7],93 nM
NS(=O)(=O)c1ccc(-n2cc(CO[C@H]3O[C@@H](CO)[C@H](O)[C@H](O)[C@@H]3O)nn2)cc1 [B0594],Ki,[1]; [5],101 nM
same,Ki,[2]; read-out: Ki,101 nM
COC(=O)[C@H]1O[C@H](SNCc2ccc(S(N)(=O)=O)cc2)[C@@H](OC(C)=O)[C@H](OC(C)=O)[C@H]1OC(C)=O [B0598],Ki,[1]; [8],102 nM
same,Ki,[2]; [4],102 nM
